Measurements: PMC7467771, “Lipophilic Arginine Esters: The Gateway to Preservatives without Side Effects” (Molecular Pharmaceutics, 2020)

Columns and labels:
Caco-2 cell membrane = assay: fluorescence anisotropy (DPH), membrane fluidity; assay type: cell-based; conditions: DPH-labeled Caco-2 cells
Protocol: To evaluate membrane fluidity by fluorescence spectroscopy, a method described by Aricha et al. was adapted.[17] Caco-2 cells were labeled with fluorescent probe DPH (1,6-diphenyl-1,3,5-hexatriene). For this, a 1 mM solution of DPH was prepared in acetone. A Caco-2 cell monolayer in a 15 mL cell flask after washing with sterile PBS was trypsinized and resuspended in 10 mM HBS (pH 7.4) at a concentration of 2 × 10^5 cells mL^–1. Then a 1 mM DPH solution (10 μL) was added to a Caco-2 cell suspension (5 mL) and kept for incubation at 37 °C in the dark. After 1 h, cells were centrifuged at 588 rpm for 3 min, and solvent was removed to get rid of the free probe. Cells were resuspended in the same volume of HBS. Samples of Arg-surfactants were prepared in HBS in concentrations of 2000, 1000, and 500 μg mL^–1. Then each sample solution was mixed with a DPH-labeled cell suspension in equal volumes and incubated at room temperature in the dark. HBS mixed in an equal volume with the DPH-labeled cell suspension was used as a control. At specific time points, fluorescence polarization data were obtained using an excitation wavelength of 350 nm and an emission wavelength of 420 nm, and anisotropy was calculated using the following equation: [drawing 5] where I∥ and I⊥ are the fluorescence intensities parallel and perpendicular to the direction of the excitation light beam.

[1] = octanol/water partition coefficient (log P) by TNBS assay; assay type: physicochemical; conditions: octanol/water mixture 1:1 v/v; mean, n = 3
Protocol: Log P of Arg and both Arg-esters were determined using an already described method.[15] Each compound was dissolved in an octanol/water mixture (1:1, v/v). Afterward, octanol and water phases were separated by a high-speed mini centrifuge (Fisher Scientific, Illinois USA), and the concentration of each compound in each phase was determined by the TNBS assay. For this, a 50 μL volume from each phase was diluted 10 times with 0.1 M sodium bicarbonate (pH 8.5) containing 40% (v/v) isopropyl alcohol. After dilution, 250 μL of the TNBS reagent (0.01%, v/v) prepared in 0.1 M sodium bicarbonate (pH 8.5) was added to each sample that was incubated at 37 °C. After 2 h, the reaction was stopped by adding 250 μL of 10% (m/v) SDS and 125 μL of 1 M HCl. The absorbance of each sample was measured at 335 nm using a Spark multifunctional microplate reader (Tecan Austria, GmbH). The logarithm of the octanol/water absorbance ratio was expressed as log P for each sample.

red blood cells (RBC) = assay: hemolysis study; assay type: cell-based; conditions: human RBC, 1 h, 37 °C, PBS pH 7.4
Protocol: The hemolysis test was performed with red blood cells (RBC) to evaluate the potential toxic effect of Arg-surfactants on human cells.[18] Human RBC concentrate was kindly donated by the Tirol Kliniken GmbH, Innsbruck, Austria, and stored at 4 °C until use. RBC concentrate (0.556 mL) was freshly diluted by adding sterile Dulbecco’s PBS (pH 7.4) (1.944 mL) before the test to obtain an equivalent amount of whole blood (EWB). Then EWB was 50 times diluted in sterile Dulbecco’s PBS (pH 7.4). The diluted blood on visual inspection was turbid and settled down upon leaving undisturbed, indicating no cell lysis. Arg-surfactant stock solutions were prepared in the concentration range of 10–5000 μg mL^–1 in PBS. For comparison, BAC and cetrimide solutions were prepared in the same concentration range in PBS. For the assay, 10 μL of each test sample was mixed with 190 μL of diluted blood, resulting in the testing final concentrations of 0.5–250 μg mL^–1. For the positive control, 10 μL of 20% v/v Triton X-100 and, for the negative control, 10 μL of sterile Dulbecco’s PBS were mixed with 190 μL of diluted blood. All samples and controls were incubated for 1 h at 37 °C with shaking. After centrifugation at 10 000 rpm for 60 s, aliquots of 100 μL were withdrawn from the supernatants and transferred to a 96-well plate. Absorbance was measured at a wavelength of 420 nm. The extent of hemolysis as a percentage was determined by using the following equation: [drawing 6]

[2] = critical micelle concentration (CMC), pyrene fluorescent method; assay type: physicochemical; conditions: aqueous solution, 37 °C, 3 h
Protocol: The critical micelle concentration (CMC) is an important solution property of any amphiphilic compound and can be defined as the minimum concentration at which micelles start to form. The CMC of Arg-esters was determined using a pyrene fluorescent method as described in a previous publication.[15] Methanol solution of pyrene (2 μM) was added to several vials (250 μL per vial) and evaporated overnight to leave thin dried films of pyrene. Aqueous solutions of Arg-esters were prepared in a wide concentration range and were added to individual vials containing pyrene films in a 500 μL volume. The samples were left stirring at 400 rpm, 37 °C. After 3 h, the fluorescence of each sample was measured at the excitation wavelength of 334 nm, and emissions were taken at 372 (I1) nm and 393 nm (I3). A graph was plotted between the fluorescent intensity ratio (I3/I1) and the log concentration of Arg-ester. Then, from the resulting curve for each Arg-ester, the “CMC value” was calculated. For the calculation of the CMC, the segmental linear regression method was used, and CMC values were obtained as the concentration corresponding to the intercept of the extrapolations of the first segment and the rapidly varying second segment of the I3/I1 versus log concentration plot. […]

SMILES	changes in anisotropy (Caco-2 cell membrane; < 1000 μg mL^–1)	logP [1]	HC50 (concentration causing lysis of 50% red blood cells) (red blood cells (RBC)) [μg mL^–1]	critical micelle concentration (CMC) [2] [mM]	decrease in the anisotropy value as compared to the control (Caco-2 cell membrane; within 2 h) [%]
CCCCCCCCCCCCC(CCCCCCCCCC)COC(=O)[C@@H](N)CCCNC(=N)N.O=C(O)C(F)(F)F (some centres unmarked) [Arg-DT, 2-Decyltetradecyl Argininate Trifluoroacetate]	not significant	0.6	125	0.013	–
CCCCCCCCC=CCCCCCCCCOC(=O)[C@@H](N)CCCNC(=N)N.O=C(O)C(F)(F)F [Arg-OL, Octadec-9-en-1-yl Argininate Trifluoroacetate]	–	0.3	60	0.52	> 30
